# Source: US20110251379A1, “COMPOUNDS USEFUL FOR TREATING NEURODEGENERATIVE DISORDERS” (Satori Pharmaceuticals, Inc., priority 2010, published 2011)
# Where two headings read alike, the source gives them in different places.
# How the values were obtained:
# Type in all cases: cell-based
# Aβ-40 = assay: MSD Human (6E10) Ab 3-PLEX elisa, conditioned media of 2B7 cells: Aβ-40; details: for IC50: Aβ-40 (superscript b)
# Summary of the method: (§1)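 Confluent 2B7 cells were treated with compounds for 5 hours at 37° C in media with 1% DMSO. Conditioned media, diluted 1:1 in blocking buffer, was incubated overnight at 4 °C or 2 h at room temperature on MSD 6E10 plates. Aβ levels were read against seven-point standard curves, and IC50 was obtained from 4-parameter fits of percent vehicle.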
# Aβ-38 = assay: MSD Human (6E10) Ab 3-PLEX elisa, conditioned media of 2B7 cells: Aβ-38; details: for IC50: Aβ-38 (superscript a); for inhibition at 20 µM: Aβ-38, 20 μM
# Summary of the method: as §1
# Aβ-42 = assay: MSD Human (6E10) Ab 3-PLEX elisa, conditioned media of 2B7 cells: Aβ-42; details: for IC50: Aβ-42 (superscript c)
# Summary of the method: as §1
# [1] = Homo sapiens, read-out: IC50 range
# [2] = Homo sapiens, read-out: 50% reduction value
SMILES,IC50 (Aβ-38; [1]),IC50 (Aβ-42; [1]),IC50 (Aβ-40; [2]),IC50 (Aβ-38; [2]),IC50 (Aβ-42; [2]),further results
C[C@@H]1CC(CN(C)CC(=O)O)OC2[C@H]1[C@@]1(C)CC[C@@]34C[C@@]35CC[C@H](O[C@H]3CN(C(=O)CC6CC6)CCO3)C(C)(C)[C@@H]5CCC4[C@]1(C)[C@H]2O (stereo partly shown),> 10 µM,> 10 µM,,,,IC50 (Aβ-40; [1]): > 10 µM
CC1CC(C(OC(=O)C2CC2)C(C)(C)O)OC2C1C1(C)CCC34CC35CCC(O)C(C)(C)C5CCC4C1(C)C2O (stereo not shown) [drawing 1214],,,,,,IC50 (Aβ-40; read-out: 50% reduction value): 1 to 10 µM; IC50 (Aβ-38; read-out: 50% reduction value): 1 to 10 µM; IC50 (Aβ-42; read-out: 50% reduction value): < 1 µM
CC(C)[C@@H](OC(=O)C1CCOCC1)C1C[C@@H](C)[C@H]2C(O1)[C@H](O)[C@@]1(C)[C@@H]3CC[C@H]4C(C)(C)C(O)CC[C@@]45C[C@@]35CC[C@]21C (stereo partly shown),> 10 µM,1 to 10 µM,,,,IC50 (Aβ-40; [1]): 1 to 10 µM
C[C@@H]1CC([C@H](Oc2ncccn2)C(C)(C)O)OC2C1[C@@]1(C)CC[C@@]34C[C@@]35CCC(O)C(C)(C)[C@@H]5CCC4[C@]1(C)[C@H]2O (stereo partly shown),,,,,,"inhibition at 20 µM (Aβ-40; Homo sapiens, Aβ-40, 20 μM): 25 to 75%; inhibition at 20 µM (Aβ-38; Homo sapiens): 25 to 75%; inhibition at 20 µM (Aβ-42; Homo sapiens, Aβ-42, 20 μM): 25 to 75%"
CC(C)[C@@H](OC(=O)N1CCC1)C1C[C@@H](C)[C@H]2C(O1)[C@H](O)[C@@]1(C)C3CC[C@H]4C(C)(C)C(OC(=O)N5CCN(S(C)(=O)=O)CC5)CC[C@@]45C[C@@]35CC[C@]21C (stereo partly shown),< 1 µM,< 1 µM,1 to 10 µM,< 1 µM,< 1 µM,IC50 (Aβ-40; [1]): 1 to 10 µM
CC1CC(C(=O)C(C)(C)O)OC2C1C1(C)CCC34CC35CCC(O)C(C)(C)C5CCC4C1(C)C2O (stereo not shown) [drawing 1218],,,,,,"% Inh. (range) (Aβ-40; Aβ-40, 20 μM): E (% inhibition of 25-75%); IC50 (Aβ-38; read-out: 50% reduction value): 1 to 10 µM; % Inh. (range) (Aβ-42; Aβ-42, 20 μM): F (% inhibition of <25%)"
C[C@@H]1CC(C(=O)O)OC2C1[C@@]1(C)CC[C@@]34C[C@@]35CC[C@H](OC3CN(C6COC6)CCO3)C(C)(C)[C@@H]5CC[C@H]4[C@]1(C)[C@H]2O (stereo partly shown),,,,,,"inhibition at 20 µM (Aβ-40; Homo sapiens, Aβ-40, 20 μM): < 25%; inhibition at 20 µM (Aβ-38; Homo sapiens): < 25%; inhibition at 20 µM (Aβ-42; Homo sapiens, Aβ-42, 20 μM): < 25%"
C[C@@H]1CC(COC(=O)C2CCOCC2)OC2[C@H]1[C@@]1(C)CC[C@@]34C[C@@]35CC[C@H](O[C@H]3CN(C6COC6)CCO3)C(C)(C)[C@@H]5CCC4[C@]1(C)[C@H]2O (stereo partly shown),,,,,,"inhibition at 20 µM (Aβ-40; Homo sapiens, Aβ-40, 20 μM): 25 to 75%; inhibition at 20 µM (Aβ-38; Homo sapiens): 25 to 75%; inhibition at 20 µM (Aβ-42; Homo sapiens, Aβ-42, 20 μM): 25 to 75%"
C[C@@H]1CC(COC(N)=O)OC2[C@H]1[C@@]1(C)CC[C@@]34C[C@@]35CC[C@H](O)C(C)(C)[C@@H]5CCC4[C@]1(C)[C@H]2O (stereo partly shown),,,> 10 µM,> 10 µM,,"inhibition at 20 µM (Aβ-38; Homo sapiens): 25 to 75%; inhibition at 20 µM (Aβ-42; Homo sapiens, Aβ-42, 20 μM): 25 to 75%"
CO[C@@H](C1C[C@@H](C)[C@H]2C(O1)[C@H](O)[C@@]1(C)C3CC[C@H]4C(C)(C)[C@@H](O)CC[C@@]45C[C@@]35CC[C@]21C)C(C)(C)O (stereo partly shown),,,,< 1 µM,< 1 µM,"inhibition at 20 µM (Aβ-40; Homo sapiens, Aβ-40, 20 μM): 25 to 75%"
C=C(C)CO[C@@H](C1C[C@@H](C)[C@H]2C(O1)[C@H](O)[C@@]1(C)C3CC[C@H]4C(C)(C)C(OC(=O)NC5CNC5)CC[C@@]45C[C@@]35CC[C@]21C)C(C)(C)O (stereo partly shown),,< 1 µM,1 to 10 µM,< 1 µM,< 1 µM,IC50 (Aβ-40; [1]): > 10 µM
CCO[C@@H](C1C[C@@H](C)[C@H]2C(O1)[C@H](O)[C@@]1(C)C3CC[C@H]4C(C)(C)C(O[C@H]5CN(C6CCOC6)CCO5)CC[C@@]45C[C@@]35CC[C@]21C)C(C)(C)O (stereo partly shown),,< 1 µM,1 to 10 µM,< 1 µM,< 1 µM,
CCO[C@@H](C1C[C@@H](C)[C@H]2C(O1)[C@H](O)[C@@]1(C)C3CC[C@H]4C(C)(C)C(O[C@H]5CN(CCCC(=O)O)CCO5)CC[C@@]45C[C@@]35CC[C@]21C)C(C)(C)O (stereo partly shown),1 to 10 µM,< 1 µM,1 to 10 µM,1 to 10 µM,< 1 µM,
COC(=O)NCCC1C[C@@H](C)C2C(O1)[C@H](O)[C@@]1(C)[C@@H]3CC[C@H]4C(C)(C)[C@@H](OC5CN(C(=O)CC6CC6)CCO5)CC[C@@]45C[C@@]35CC[C@]21C (stereo partly shown),1 to 10 µM,1 to 10 µM,,,,"inhibition at 100 µM (Aβ-40; Homo sapiens, Aβ-40, 100 μM): 25 to 75%"
CC(C)CC(=O)O[C@@H](C1C[C@@H](C)[C@H]2C(O1)[C@H](O)[C@@]1(C)[C@@H]3CC[C@H]4C(C)(C)C(O)CC[C@@]45C[C@@]35CC[C@]21C)C(C)(C)O (stereo partly shown),< 1 µM,,1 to 10 µM,< 1 µM,< 1 µM,
CC(C)C(=O)OC(C1CC(C)C2C(O1)C(O)C1(C)C3CCC4C(C)(C)C(OC5CN(C6COC6)CCO5)CCC45CC35CCC21C)C(C)(C)O (stereo not shown) [drawing 1220],,,,,,IC50 (Aβ-40; read-out: 50% reduction value): 1 to 10 µM; IC50 (Aβ-38; read-out: 50% reduction value): < 1 µM; IC50 (Aβ-38; read-out: IC50 range): < 1 µM; IC50 (Aβ-42; read-out: 50% reduction value): < 1 µM
CC(=O)O[C@@H]([C@H]1C[C@@H](C)C2C(O1)[C@H](O)[C@@]1(C)[C@@H]3CC[C@H]4C(C)(C)[C@@H](OC5CN(CC(=O)N(C)C)CCO5)CC[C@@]45C[C@@]35CC[C@]21C)C(C)(C)O (stereo partly shown) [drawing 1199],< 1 µM,< 1 µM,1 to 10 µM,< 1 µM,< 1 µM,
COC(=O)O[C@H](C(C)C)C1C[C@@H](C)[C@H]2C(O1)[C@H](O)[C@@]1(C)C3CC[C@H]4C(C)(C)[C@@H](O)CC[C@@]45C[C@@]35CC[C@]21C (stereo partly shown),,,,,,"inhibition at 20 µM (Aβ-40; Homo sapiens, Aβ-40, 20 μM): 25 to 75%; inhibition at 20 µM (Aβ-38; Homo sapiens): 25 to 75%; inhibition at 20 µM (Aβ-42; Homo sapiens, Aβ-42, 20 μM): 25 to 75%"
C[C@@H]1CC(CNC(C(=O)O)C(F)(F)F)OC2[C@H]1[C@@]1(C)CC[C@@]34C[C@@]35CC[C@H](O[C@H]3CN(C6COC6)CCO3)C(C)(C)[C@@H]5CCC4[C@]1(C)[C@H]2O (stereo partly shown),,,,,,"inhibition at 20 µM (Aβ-40; Homo sapiens, Aβ-40, 20 μM): 25 to 75%; inhibition at 20 µM (Aβ-38; Homo sapiens): < 25%; inhibition at 20 µM (Aβ-42; Homo sapiens, Aβ-42, 20 μM): 25 to 75%"
CCO[C@@H](C1C[C@@H](C)[C@H]2C(O1)[C@H](O)[C@@]1(C)C3CC[C@H]4C(C)(C)C(OC(N)=O)CC[C@@]45C[C@@]35CC[C@]21C)C(C)(C)O (stereo partly shown),,< 1 µM,1 to 10 µM,< 1 µM,< 1 µM,
C=C(C)CO[C@@H](C1C[C@@H](C)[C@H]2C(O1)[C@H](O)[C@@]1(C)C3CC[C@H]4C(C)(C)C(O)CC[C@@]45C[C@@]35CC[C@]21C)C(C)(C)O (stereo partly shown),< 1 µM,< 1 µM,1 to 10 µM,< 1 µM,< 1 µM,IC50 (Aβ-40; [1]): 1 to 10 µM
CC(C)CO[C@@H](C1C[C@@H](C)[C@H]2C(O1)[C@H](O)[C@@]1(C)C3CC[C@H]4C(C)(C)C(OC(=O)NC5CNC5)CC[C@@]45C[C@@]35CC[C@]21C)C(C)(C)O (stereo partly shown),,< 1 µM,1 to 10 µM,1 to 10 µM,< 1 µM,
C[C@@H]1CC(CCC(N)=O)OC2C1[C@@]1(C)CC[C@@]34C[C@@]35CC[C@H](OC3CN(C(=O)CC6CC6)CCO3)C(C)(C)[C@@H]5CC[C@H]4[C@]1(C)[C@H]2O (stereo partly shown),1 to 10 µM,1 to 10 µM,,,,IC50 (Aβ-40; [1]): > 10 µM
C[C@@H]1CC(CN2CCC[C@@H]2C(=O)O)OC2[C@H]1[C@@]1(C)CC[C@@]34C[C@@]35CC[C@H](O[C@H]3CN(C(=O)CC6CC6)CCO3)C(C)(C)[C@@H]5CCC4[C@]1(C)[C@H]2O (stereo partly shown),> 10 µM,> 10 µM,,,,IC50 (Aβ-40; [1]): > 10 µM
CC(=O)OCC1C[C@@H](C)C2C(O1)[C@H](O)[C@@]1(C)[C@@H]3CC[C@H]4C(C)(C)[C@@H](O)CC[C@@]45C[C@@]35CC[C@]21C (stereo partly shown) [drawing 1161],,,,,,"inhibition at 20 µM (Aβ-40; Homo sapiens, Aβ-40, 20 μM): 25 to 75%; inhibition at 20 µM (Aβ-38; Homo sapiens): 25 to 75%; inhibition at 20 µM (Aβ-42; Homo sapiens, Aβ-42, 20 μM): 25 to 75%"
C[C@@H]1CC([C@H](OC(=O)C2CCOCC2)C(C)(C)O)OC2[C@H]1[C@@]1(C)CC[C@@]34C[C@@]35CC[C@H](O)C(C)(C)[C@@H]5CCC4[C@]1(C)[C@H]2O (stereo partly shown),,,,1 to 10 µM,,"inhibition at 20 µM (Aβ-40; Homo sapiens, Aβ-40, 20 μM): 25 to 75%; inhibition at 20 µM (Aβ-42; Homo sapiens, Aβ-42, 20 μM): 25 to 75%"
CC1CC(C(OC(=O)C2CCC2)C(C)(C)O)OC2C1C1(C)CCC34CC35CCC(OC3CN(C6COC6)CCO3)C(C)(C)C5CCC4C1(C)C2O (stereo not shown) [drawing 1219],,,,,,IC50 (Aβ-40; read-out: 50% reduction value): < 1 µM; IC50 (Aβ-38; read-out: 50% reduction value): < 1 µM; IC50 (Aβ-38; read-out: IC50 range): < 1 µM; IC50 (Aβ-42; read-out: 50% reduction value): < 1 µM
CC(C)[C@@H](OC(=O)N1CCC1)C1C[C@@H](C)[C@H]2C(O1)[C@H](O)[C@@]1(C)C3CC[C@H]4C(C)(C)C(OC(=O)NC5COC5)CC[C@@]45C[C@@]35CC[C@]21C (stereo partly shown),,,> 10 µM,< 1 µM,< 1 µM,
